Measured values taken from patent publication US20050059735A1, “Cyclic amino acid derivatives useful as pharmaceutical agents” (priority 2000, published 2005).
Like-named read-outs stand apart in the source and are kept apart here.

Experiments:
[1] = rat, in vivo, po, 5 mg/kg
in vivo = conditions: rat, po

SMILES | half-life [1] | half-life (in vivo)
O=C(CC1(CNC(=O)c2ccccc2)CCCCC1)OCc1ccccc1 [Example 10, [1-(Benzoylamino-methyl)-cyclohexyl]-acetic acid benzyl ester] | about 6 hrs | 
NCC1(CC(=O)O)CCCCC1 [gabapentin, 1-(aminomethyl)-cyclohexylacetic acid] |  | 1.2 h
